Measured values as given in paper PMC10222209 (Pharmaceuticals, 2023).
“Also recorded” adds a separate entry of the source. Read-outs that look alike come from different tables or passages of the source.

Legend:
22RV1 cells = assay: Antiproliferative assay (resazurin, 72 h) in 22RV1 cells; assay type: cell-based; conditions: for inhibition at 1 µM / IC50: Homo sapiens; for antiproliferative activity, in words: enzalutamide-resistant cell lines LNCaP95 and 22RV1, SAR statements
Method: (§1) 22Rv1 cells were obtained from ATCC. LNCaP95 cells were provided by Dr. Yan Dong’s laboratory (Tulane University School of Medicine). LNCaP95 cells were maintained in an RPMI1640 medium with charcoal-stripped serum (CSS). 22Rv1 cells were maintained in an RPMI1640 medium with 10% FBS. Cells were seeded in 96-well plates (5 × 10^3 cells/well) containing a 50 μL growth medium for 24 h. After medium removal, a 100 μL fresh medium containing individual compounds at different concentrations was added to each well and incubated at 37 °C for 72 h. Then, 20 μL of resazurin was added for 2 h before recording fluorescence at 560 nm (excitation) and 590 nm (emission) using a Victor microtiter plate fluorometer (Perkin-Elmer, Waltham, MA, USA).

LNCaP95 cells = assay: Antiproliferative assay (resazurin, 72 h) in LNCaP95 cells; assay type: cell-based
Method: as §1

[1] = 22RV1, 1.0 μM, read-out: Inhibitory Rate 22RV1 @1.0 μM
[2] = antiproliferation, 22RV1, 72 h, mean of three independent experiments, read-out: IC50 (μM) 22RV1
[3] = observed, −log IC50, 22RV1 antiproliferation, read-out: Obs pIC50 (converted)
[4] = LNCaP-95, antiproliferation, LNCaP95, 72 h, mean of three independent experiments, read-out: IC50 (μM) LNCaP95

| Compound | inhibition at 1 µM (22RV1 cells; [1]) [%] | IC50 (22RV1 cells; [2]) [µM] | IC50 (22RV1 cells; [3]) [µM] | IC50 (LNCaP95 cells; [4]) [µM] | antiproliferative activity, in words (22RV1 cells) | IC50 (22RV1 cells; 22Rv1, 72 h, read-out: IC50 (μM) 22RV1) [µM] | inhibition at 1 µM (22RV1 cells; 22Rv1, read-out: Inhibitory Rate 22RV1 @1.0 μM) [%] | IC50 (22RV1 cells; 22Rv1, read-out: Obs pIC50 (converted)) [µM] | IC50 (LNCaP95 cells; LNCaP-95, 72 h, read-out: IC50 (μM) LNCaP95) [µM] | IC50 (22RV1 cells; 22Rv1, antiproliferation, approximate value, read-out: IC50 in 22RV1 (text)) [µM] | IC50 (LNCaP95 cells; LNCaP-95, antiproliferation, approximate value, read-out: IC50 in LNCaP95 (text)) [µM] |
| --- | --- | --- | --- | --- | --- | --- | --- | --- | --- | --- | --- |
| O=C(Nc1ccc([N+](=O)[O-])c(Cl)c1)c1ccc(Cl)cc1O [A4] | 47.5 | 0.713 ± 0.178 | 0.713 | 3.43 ± 0.49 |  |  |  |  |  |  |  |
| O=C(Nc1ccc(C(F)(F)F)cc1F)c1cc(F)ccc1O [B6] | 62.5 | 0.196 ± 0.032 | 0.196 | 0.185 ± 0.041 | equivalent or improved anti-proliferation potency |  |  |  |  |  |  |
| COc1cc([N+](=O)[O-])ccc1NC(=O)c1cc(Cl)ccc1O [A13] | 57.3 | 0.158 ± 0.044 | 0.158 | 0.444 ± 0.119 |  |  |  |  |  |  |  |
| Nc1ccc(NC(=O)c2cc(Cl)ccc2O)c(Cl)c1 [B2] | 19.6 |  |  |  | complete loss of activity |  |  |  |  |  |  |
| Cc1cc(NC(=O)c2cc(Cl)ccc2O)ccc1[N+](=O)[O-] [A17] | 50.1 | 0.324 ± 0.058 | 0.324 | 0.867 ± 0.298 |  |  |  |  |  |  |  |
| O=C(Nc1ccc([N+](=O)[O-])cc1Cl)c1cccc(Br)c1 [C4] | 31.2 |  |  |  | significant loss of activity |  |  |  |  |  |  |
| Cc1cc([N+](=O)[O-])ccc1NC(=O)c1cc(Cl)ccc1O [A12] | 58 | 0.248 ± 0.063 | 0.248 | 0.493 ± 0.105 |  |  |  |  |  |  |  |
| O=C(Nc1ccc([N+](=O)[O-])c(Cl)c1)c1cc(Cl)ccc1O [A14] |  |  |  |  |  | 0.386 ± 0.171 | 51.3 | 0.386 | 1.67 ± 0.25 |  |  |
| O=C(Nc1ccc([N+](=O)[O-])c(C(F)(F)F)c1)c1cccc(Br)c1 [C5] | 58.3 | 0.306 ± 0.058 | 0.306 | 0.536 ± 0.201 | retained |  |  |  |  |  |  |
| COc1cc([N+](=O)[O-])ccc1NC(=O)c1ccc(Cl)cc1O [A3] | 50 | 0.714 ± 0.303 | 0.714 | 2.48 ± 0.702 |  |  |  |  |  |  |  |
| O=C(Nc1ccc(C(F)(F)F)nc1)c1cc(F)ccc1O [B10] | 42.3 | 0.547 ± 0.153 | 0.547 | 0.627 ± 0.225 |  |  |  |  |  |  |  |
| CNC(=O)c1ccc(N2C(=S)N(c3ccc(C#N)c(C(F)(F)F)c3)C(=O)C2(C)C)cc1F [Enzalutamide, reference compound] | 24.1 |  |  |  |  |  |  |  |  |  |  |
| CC(=O)Oc1ccc(Cl)cc1C(=O)Nc1ccc([N+](=O)[O-])cc1Cl [C7] | 42.9 | 0.481 ± 0.113 | 0.481 | 0.386 ± 0.098 | comparable activity |  |  |  |  |  |  |
| O=C(Nc1ccc([N+](=O)[O-])cc1Cl)c1cc(Cl)ccc1O [Niclosamide, reference compound] | 55.8 | 0.284 ± 0.059 | 0.284 | 0.372 ± 0.074 |  |  |  |  |  |  |  |
| COc1cc(NC(=O)c2cc(Cl)ccc2O)ccc1[N+](=O)[O-] [A18] | 55.4 | 0.483 ± 0.145 | 0.483 | 2.11 ± 0.46 |  |  |  |  |  |  |  |
| O=C(Nc1ccc([N+](=O)[O-])c(F)c1)c1cc(Cl)ccc1O [A15] | 55.4 | 0.28 ± 0.092 | 0.28 | 0.755 ± 0.221 |  |  |  |  |  |  |  |
| COc1cc([N+](=O)[O-])ccc1NC(=O)c1cc(Br)ccc1O [A20] | 60.2 | 0.242 ± 0.044 | 0.242 | 0.304 ± 0.053 | equivalent or improved anti-proliferation potency |  |  |  |  |  |  |
| N#Cc1cc(NC(=O)c2cc(F)ccc2O)ccc1C(F)(F)F [B8] | 60.4 | 0.24 ± 0.048 | 0.24 | 0.396 ± 0.065 |  |  |  |  |  |  |  |
| O=C(Nc1ccc([N+](=O)[O-])cc1F)c1cc(Cl)ccc1O [A10] | 56 | 0.271 ± 0.125 | 0.271 | 0.373 ± 0.069 |  |  |  |  |  |  |  |
| O=C(Nc1ccc([N+](=O)[O-])cc1)c1cc(Cl)ccc1O [A9] | 44.9 | 0.581 ± 0.289 | 0.581 | 0.812 ± 0.374 |  |  |  |  |  |  |  |
| O=C(Nc1ccc([N+](=O)[O-])c(C(F)(F)F)c1)c1cc(Cl)ccc1O [A16] | 47.5 | 0.556 ± 0.112 | 0.556 | 0.693 ± 0.314 |  |  |  |  |  |  |  |

| Compound | inhibition at 1 µM (22RV1 cells; [1]) [%] | IC50 (22RV1 cells; [2]) [µM] | IC50 (22RV1 cells; [3]) [µM] | IC50 (LNCaP95 cells; [4]) [µM] | antiproliferative activity, in words (22RV1 cells) | IC50 (22RV1 cells; 22Rv1, 72 h, read-out: IC50 (μM) 22RV1) [µM] | inhibition at 1 µM (22RV1 cells; 22Rv1, read-out: Inhibitory Rate 22RV1 @1.0 μM) [%] | IC50 (22RV1 cells; 22Rv1, read-out: Obs pIC50 (converted)) [µM] | IC50 (LNCaP95 cells; LNCaP-95, 72 h, read-out: IC50 (μM) LNCaP95) [µM] | IC50 (22RV1 cells; 22Rv1, antiproliferation, approximate value, read-out: IC50 in 22RV1 (text)) [µM] | IC50 (LNCaP95 cells; LNCaP-95, antiproliferation, approximate value, read-out: IC50 in LNCaP95 (text)) [µM] |
| --- | --- | --- | --- | --- | --- | --- | --- | --- | --- | --- | --- |
| O=C(Nc1ccc(C(F)(F)F)c(C(F)(F)F)c1)c1cc(Br)ccc1O [B4] | 53.1 | 0.307 ± 0.059 | 0.307 | 0.213 ± 0.042 |  |  |  |  |  |  |  |
| O=C(Nc1ccc(C(F)(F)F)cc1Cl)c1cc(F)ccc1O [B5] | 59.2 | 0.375 ± 0.063 | 0.375 | 0.384 ± 0.088 |  |  |  |  |  |  |  |
| O=C(Nc1ccc([N+](=O)[O-])cc1C(F)(F)F)c1cc(Cl)ccc1O [A11] | -8.3 |  |  |  |  |  |  |  |  |  |  |
| O=C(Nc1ccc([N+](=O)[O-])cc1Cl)c1cc(Cl)ccc1OS(=O)(=O)C(F)(F)F [C8] | 59.2 | 0.252 ± 0.092 | 0.252 | 0.196 ± 0.064 | equivalent or improved anti-proliferation potency; also recorded: slightly improved |  |  |  |  |  |  |
| N#Cc1cc(C(F)(F)F)ccc1NC(=O)c1cc(F)ccc1O [B7] | 42.3 | 7.92 ± 2.56 | 7.93 | 4.38 ± 1.33 |  |  |  |  |  |  |  |
| O=C(Nc1ccc([N+](=O)[O-])c(C(F)(F)F)c1)c1ccc(Cl)cc1O [A6] | 54.4 | 0.424 ± 0.12 | 0.424 | 0.214 ± 0.067 | equivalent or improved anti-proliferation potency |  |  |  |  |  |  |
| O=C(Nc1ccc([N+](=O)[O-])cc1F)c1ccc(Cl)cc1O [A1] | 54.3 | 0.467 ± 0.131 | 0.467 | 1.19 ± 0.53 |  |  |  |  |  |  |  |
| O=C(Nc1ccc(C(F)(F)F)c(C(F)(F)F)c1)c1cc(C(F)(F)F)ccc1O [B16] | 64.6 | 0.111 ± 0.023 | 0.111 | 0.113 ± 0.044 | equivalent or improved anti-proliferation potency |  |  |  |  | ~0.1 | ~0.1 |
| O=C(Nc1ccc([N+](=O)[O-])cc1Cl)c1cccc(Cl)c1 [C2] | 19 |  |  |  | significant loss of activity |  |  |  |  |  |  |
| O=C(Nc1ccc([N+](=O)[O-])cc1Cl)c1cc(Br)ccc1O [A19] | 13.4 |  |  |  | dramatic loss of activity |  |  |  |  |  |  |
| N#Cc1ccc(O)c(C(=O)Nc2ccc(C(F)(F)F)c(C(F)(F)F)c2)c1 [B15] | 44.8 | 1.04 ± 0.26 | 1.04 | 2.35 ± 0.53 |  |  |  |  |  |  |  |
| N#Cc1ccc(NC(=O)c2cc(F)ccc2O)c(F)c1 [B13] | 65.6 | 0.184 ± 0.061 | 0.184 | 0.231 ± 0.072 |  |  |  |  |  |  |  |
| O=C(Nc1ccnc(C(F)(F)F)c1)c1cc(F)ccc1O [B11] | 47.7 | 0.581 ± 0.205 | 0.581 | 0.392 ± 0.136 |  |  |  |  |  |  |  |
| O=C(Nc1ccc([N+](=O)[O-])c(C(F)(F)F)c1)c1cccc(Cl)c1 [C3] | 43.7 | 0.557 ± 0.127 | 0.557 | 0.33 ± 0.081 | retained |  |  |  |  |  |  |
| Cc1cc(NC(=O)c2ccc(Cl)cc2O)ccc1[N+](=O)[O-] [A7] | 42.5 | 0.976 ± 0.205 | 0.975 | 0.789 ± 0.436 |  |  |  |  |  |  |  |
| N#Cc1ccc(NC(=O)c2cc(F)ccc2O)c(Cl)c1 [B12] | 44.3 | 3.23 ± 1.84 | 3.23 | > 10 |  |  |  |  |  |  |  |
| O=C(Nc1ccc([N+](=O)[O-])c(F)c1)c1ccc(Cl)cc1O [A5] | 44.2 | 0.924 ± 0.414 | 0.925 | 0.937 ± 0.351 |  |  |  |  |  |  |  |
| O=C(Nc1ccc(C(F)(F)F)c(C(F)(F)F)c1)c1cccc(Cl)c1 [C1] | 53.1 | 0.32 ± 0.115 | 0.32 | 0.299 | retained |  |  |  |  |  |  |
| COc1cc(NC(=O)c2ccc(Cl)cc2O)ccc1[N+](=O)[O-] [A8] | 35.9 | 2.11 ± 0.52 | 2.11 | 0.615 ± 0.138 |  |  |  |  |  |  |  |
| Cc1cc([N+](=O)[O-])ccc1NC(=O)c1ccc(Cl)cc1O [A2] | 47.1 | 0.676 ± 0.245 | 0.676 | 0.62 ± 0.311 |  |  |  |  |  |  |  |
